# Read-outs that look alike come from different tables or passages of the source.
# How the values were obtained:
# [1] = tested on: 229E human corona virus (hCoV); experiment: 229E Live Virus Assay (MRC-5 cells, CPE, ATPlite readout); type: cell-based, hCoV-229E; conditions: read-out: 229E EC50
# SARS-CoV-2 3CL-protease = SARS-CoV-2 3CL-protease (Severe acute respiratory syndrome coronavirus 2 (2019-nCoV) (SARS-CoV-2), UniProt P0DTD1); experiment: SARS-CoV-2 3C-Like (3CL) Protease Fluorescence Assay (FRET); type: biochemical
# [2] = Human coronavirus 229E, MRC5, 144 h
Structure (SMILES),"EC50 [1, 2] [µM]",IC50 (SARS-CoV-2 3CL-protease) [nM],further results
CC(C)(C)C(NCc1cc(F)c(F)cc1F)C(=O)N1CCC[C@H]1C(=O)N1C[C@]2(C[C@H]1C#N)C(=O)Nc1ccccc12 (stereo partly drawn) [Example 61],> 1,> 1000,–
CC(C)[C@H](NC(=O)N1CCCCC1)C(=O)N(C)[C@@H](CC(C)(C)C)C(=O)N1C[C@]2(C[C@H]1C#N)C(=O)Nc1ccccc12 [Example 112],0.1 to 1,< 100,–
COC(=O)N[C@H](C(=O)N(C)[C@@H](CC(C)C)C(=O)N1C[C@]2(C[C@H]1C#N)C(=O)Nc1ccccc12)C(C)(C)C [Example 13],0.1 to 1,< 100,–
CN(C(=O)[C@H](CC1CC1)NC(=O)c1cc(F)c2nn(C3CC3)cc2c1)[C@@H](CC(C)(C)C)C(=O)N1C[C@]2(C[C@H]1C#N)C(=O)Nc1ccccc12 [Example 127],–,< 100,–
COC(=O)N[C@@H](Cc1ccc(F)cc1)C(=O)N(C)[C@@H](CC(C)C)C(=O)N1C[C@]2(C[C@H]1C#N)C(=O)Nc1ccccc12 [Example 3],< 0.1,< 100,–
CC(C)(C)C[C@H](NC(=O)[C@H](Cc1ccc(F)cc1)NC(=O)OCc1ccccc1)C(=O)N1C[C@]2(C[C@H]1C#N)C(=O)Nc1ccccc12 [Example 62],> 1,< 100,–
CC(=O)N[C@@H](CC1CC1)C(=O)N(C)[C@@H](CC(C)(C)C)C(=O)N1C[C@]2(C[C@H]1C#N)C(=O)Nc1ccccc12 [Example 78],< 0.1,< 100,–
CN(C(=O)[C@@H](NCc1cc(F)c(F)cc1F)C(C)(C)C)[C@@H](Cc1ccccc1)C(=O)N1C[C@]2(C[C@H]1C#N)C(=O)Nc1ccccc12 [Example 30],0.1 to 1,< 100,–
CC(C)C[C@@H](C(=O)N1C[C@]2(C[C@H]1C#N)C(=O)Nc1ccccc12)N(C)C(=O)[C@H](Cc1ccc(F)cc1)NC(=O)C(F)(F)F [Example 2],–,< 100,"EC50 ([1]; Human coronavirus 229E, MRC5, 144 h, MRC-5 cells, hCoV-229E MOI 0.05, 6 days at 34° C., ATPlite, duplicate, ranges defined in μM): < 0.1 µM"
Cc1ncc(C(=O)N[C@@H](CC2CC2)C(=O)N[C@@H](CC(C)(C)C)C(=O)N2C[C@]3(C[C@H]2C#N)C(=O)Nc2ccccc23)s1 [Example 100],–,< 100,–
CC(C)C[C@@H](C(=O)N1C[C@]2(C[C@H]1C#N)C(=O)Nc1ccccc12)N(C)C(=O)[C@H](CC1CCC1)NC(=O)C(C)(C)C [Example 42],< 0.1,< 100,–
COc1cc(C(=O)N[C@@H](CC2CC2)C(=O)N(C)[C@@H](CC(C)(C)C)C(=O)N2C[C@]3(C[C@H]2C#N)C(=O)Nc2ccccc23)cc2cn(C3CC3)nc12 [Example 123],0.1 to 1,< 100,–
CC(C)(C)C(NS(=O)(=O)c1ccccc1)C(=O)N1CCC[C@H]1C(=O)N1C[C@]2(C[C@H]1C#N)C(=O)Nc1ccccc12 (stereo partly drawn) [Example 57],> 1,> 1000,–
CC(C)(C)C[C@H](NC(=O)[C@H](CC1CC1)NC(=O)NC1CC1)C(=O)N1C[C@]2(C[C@H]1C#N)C(=O)Nc1ccccc12 [Example 38],–,< 100,–
CC(=O)N[C@@H](CC1CC1)C(=O)N(C)[C@@H](CC(C)C)C(=O)N1C[C@]2(C[C@H]1C#N)C(=O)Nc1ccccc12 [Example 41],< 0.1,< 100,–
CC(C)(C)C(NC(=O)C(F)(F)F)C(=O)N1CCC[C@H]1C(=O)N1C[C@]2(C[C@H]1C#N)C(=O)Nc1ccccc12 (stereo partly drawn) [Example 102],–,> 1000,–
CC(C)C[C@@H](C(=O)N1C[C@]2(C[C@H]1C#N)C(=O)Nc1ccccc12)N(C)C(=O)[C@H](CC(C)(C)C)NC(=O)C(F)(F)F [Example 26],< 0.1,< 100,–
CC(C)C[C@@H](C(=O)N1C[C@]2(C[C@H]1C#N)C(=O)Nc1ccccc12)N(C)C(=O)[C@@H](NC(=O)C(F)(F)F)C1CCCCC1 [Example 21],< 0.1,< 100,–
CN(C(=O)[C@H](Cc1ccc(F)cc1)NC(=O)c1cc2c(F)cc(F)c(F)c2[nH]1)[C@@H](CC(C)(C)C)C(=O)N1C[C@]2(C[C@H]1C#N)C(=O)Nc1ccccc12 [Example 7],< 0.1,< 100,–
Cc1cc(C(=O)N[C@@H](Cc2ccc(F)cc2)C(=O)N(C)[C@@H](CC(C)(C)C)C(=O)N2C[C@]3(C[C@H]2C#N)C(=O)Nc2ccccc23)no1 [Example 39],< 0.1,< 100,–
CC(C)[C@H](NC(=O)c1ccc(F)c(F)c1)C(=O)N(C)[C@@H](CC(C)(C)C)C(=O)N1C[C@]2(C[C@H]1C#N)C(=O)Nc1ccccc12 [Example 107],0.1 to 1,< 100,–
CC(C)C[C@@H](C(=O)N1C[C@]2(C[C@H]1C#N)C(=O)Nc1ccccc12)N(C)C(=O)[C@H](CC1CCC1)NC(=O)C(F)(F)F [Example 27],< 0.1,< 100,–
CN(C(=O)[C@H](CC1CC1)NS(C)(=O)=O)[C@@H](CC(C)(C)C)C(=O)N1C[C@]2(C[C@H]1C#N)C(=O)Nc1ccccc12 [Example 81],< 0.1,< 100,–
CC(C)C[C@@H](C(=O)N1C[C@]2(C[C@H]1C#N)C(=O)Nc1ccccc12)N(C)C(=O)[C@@H](NC(=O)C(F)(F)F)c1ccccc1 [Example 116],–,< 100,–
CC(C)(C)C[C@H](NC(=O)[C@H](CC1CC1)NC(=O)N1CCCCC1)C(=O)N1C[C@]2(C[C@H]1C#N)C(=O)Nc1ccccc12 [Example 101],–,< 100,–

Structure (SMILES),"EC50 [1, 2] [µM]",IC50 (SARS-CoV-2 3CL-protease) [nM],further results
CC(C)C(=O)N[C@@H](C)C(=O)N(C)[C@@H](CC(C)(C)C)C(=O)N1C[C@]2(C[C@H]1C#N)C(=O)Nc1ccccc12 [Example 130],–,< 100,–
CC(C)(C)C[C@H](NC(=O)[C@H](CC1CC1)NC(=O)C1(c2ccccc2)CC1)C(=O)N1C[C@]2(C[C@H]1C#N)C(=O)Nc1ccccc12 [Example 71],–,< 100,–
CC(C)[C@H](NS(=O)(=O)c1ccc(F)cc1)C(=O)N(C)[C@@H](CC(C)(C)C)C(=O)N1C[C@]2(C[C@H]1C#N)C(=O)Nc1ccccc12 [Example 111],–,–,"EC50 ([1]; MRC-5 cells, hCoV-229E MOI 0.05, 6 days at 34° C., ATPlite, duplicate, ranges defined in μM): 0.1 to 1 µM"
CC(C)(C)C[C@H](NC(=O)[C@H](CC1CC1)NC(=O)C(F)(F)c1ccccc1)C(=O)N1C[C@]2(C[C@H]1C#N)C(=O)Nc1ccccc12 [Example 79],–,< 100,–
CC(C)C[C@@H](C(=O)N1C[C@]2(C[C@H]1C#N)C(=O)Nc1ccccc12)N(C)C(=O)[C@H](C)NC(=O)c1ccc(F)cc1 [Example 135],–,< 100,–
CC(C)(C)C[C@H](NC(=O)[C@H](CC1CC1)NC(=O)c1ccc(F)cc1)C(=O)N1C[C@]2(C[C@H]1C#N)C(=O)Nc1ccccc12 [Example 97],–,< 100,–
CN(C(=O)[C@H](CC1CC1)NC(=O)c1ccc(OC2CC2)c(OC2CC2)c1)[C@@H](CC(C)(C)C)C(=O)N1C[C@]2(C[C@H]1C#N)C(=O)Nc1ccccc12 [Example 131],–,< 100,–
CC(C)(C)C[C@H](NC(=O)[C@H](CC1CC1)N1CCOC1=O)C(=O)N1C[C@]2(C[C@H]1C#N)C(=O)Nc1ccccc12 [Example 119],–,< 100,–
CC(C)(C)C[C@H](NC(=O)[C@H](CC1CC1)NC(=O)C(F)(F)F)C(=O)N1C[C@]2(C[C@H]1C#N)C(=O)Nc1ccccc12 [Example 96],–,< 100,–
CN(C(=O)[C@H](CC1CC1)NC(=O)c1cc(OC(F)(F)F)c2ncccc2c1)[C@@H](CC(C)(C)C)C(=O)N1C[C@]2(C[C@H]1C#N)C(=O)Nc1ccccc12 [Example 125],–,< 100,–
CC(C)(C)C[C@H](NC(=O)[C@H](CC1CC1)n1cc(C2CC2)nn1)C(=O)N1C[C@]2(C[C@H]1C#N)C(=O)Nc1ccccc12 [Example 53],–,< 100,–
CC(=O)N[C@@H](Cc1ccc(F)cc1)C(=O)N(C)[C@@H](CC(C)(C)C)C(=O)N1C[C@]2(C[C@H]1C#N)C(=O)Nc1ccccc12 [Example 103],–,< 100,–
CC(C)(C)C[C@H](NC(=O)[C@H](CC1CC1)NC(=O)N1CCOCC1)C(=O)N1C[C@]2(C[C@H]1C#N)C(=O)Nc1ccccc12 [Example 84],–,< 100,–
CC(C)(C)C[C@H](NC(=O)[C@H](CC1CC1)NC(=O)c1cnccn1)C(=O)N1C[C@]2(C[C@H]1C#N)C(=O)Nc1ccccc12 [Example 98],–,< 100,–
CC(=O)N[C@@H](C)C(=O)N(C)[C@@H](CC(C)(C)C)C(=O)N1C[C@]2(C[C@H]1C#N)C(=O)Nc1ccccc12 [Example 129],–,< 100,–
CN(C(=O)[C@H](CC1CC1)NC(=O)c1cc2c(F)cc(F)c(F)c2[nH]1)[C@@H](CC(C)(C)C)C(=O)N1C[C@]2(C[C@H]1C#N)C(=O)Nc1ccccc12 [Example 126],–,< 100,–
Cc1cc(C(=O)N[C@@H](CC2CC2)C(=O)N[C@@H](CC(C)(C)C)C(=O)N2C[C@]3(C[C@H]2C#N)C(=O)Nc2ccccc23)no1 [Example 99],–,< 100,–
CC(C)(C)C[C@H](NC(=O)[C@H](CC1CC1)NS(=O)(=O)C1CC1)C(=O)N1C[C@]2(C[C@H]1C#N)C(=O)Nc1ccccc12 [Example 37],–,< 100,–
CC(C)C[C@@H](C(=O)N1C[C@]2(C[C@H]1C#N)C(=O)Nc1ccccc12)N(C)C(=O)C(NC(=O)c1ccc(F)c(F)c1)c1ccccc1 (stereo partly drawn) [Example 118],–,< 100,–
CN(C)[C@@H](CC1CC1)C(=O)N(C)[C@@H](CC(C)(C)C)C(=O)N1C[C@]2(C[C@H]1C#N)C(=O)Nc1ccccc12 [Example 132],–,100 to 1000,–
CC(C)(C)C[C@H](NC(=O)[C@H](Cc1ccc(F)cc1)NC(=O)c1cnccn1)C(=O)N1C[C@]2(C[C@H]1C#N)C(=O)Nc1ccccc12 [Example 104],–,< 100,–
CC(=O)N[C@@H](CC1CC1)C(=O)N[C@@H](CC(C)(C)C)C(=O)N1C[C@]2(C[C@H]1C#N)C(=O)Nc1ccccc12 [Example 95],–,< 100,–
CN(C)[C@@H](CC1CC1)C(=O)N[C@@H](CC(C)(C)C)C(=O)N1C[C@]2(C[C@H]1C#N)C(=O)Nc1ccccc12 [Example 106],–,> 1000,–
CC(C)C[C@@H](C(=O)N1C[C@]2(C[C@H]1C#N)C(=O)Nc1ccccc12)N(C)C(=O)[C@H](NC(=O)C(F)(F)F)c1ccccc1 [Example 117],–,< 100,–
Cc1cc(C(=O)N[C@@H](Cc2ccc(F)cc2)C(=O)N[C@@H](CC(C)(C)C)C(=O)N2C[C@]3(C[C@H]2C#N)C(=O)Nc2ccccc23)no1 [Example 105],–,< 100,–

# From patent publication US11325916B1, “Spiropyrrolidine derived antiviral agents” (priority 2021, dated 2022)
